The source of these data is patent US20100239556A1, “PROMOTING ECM PRODUCTION BY FIBROBLAST CELLS AND/OR PROMOTING MIGRATION OF FIBROBLAST CELLS IN A BIOLOGICAL SYSTEM” (TGR BioScience Pty Ltd., priority 2006, published 2010).

Data set [1] concerns HFF cells. As to the kind of experiment: Collagen I production in the presence of dexamethasone. In kind it is cell-based, human. The protocol: Primary human foreskin fibroblast cells (HFF) were seeded into 96 well plates at a density of 1.2×10^4 cells/well and cultured overnight in 10% fetal bovine serum/Dulbecco's minimum essential media (10% FBS/DMEM) at 37° C. and 5% CO2. The cells were then starved overnight in serum free DMEM and triplicate wells treated for six hours with a range of doses of proteins with peroxidase activity; horse radish peroxidase (HRP; 0.2-50 ug/ml), Arthromyces ramosus peroxidase (ARP; 0.2-50 ug/ml), microperoxidase (MP; 8-500 ug/ml), soy bean peroxidase (SBP; 0.2-100 ug/ml) and lactoperoxidase (LP; 10-310 ug/ml) (all obtained from Sigma-Aldrich). At the end of the six hour treatment period, the media was aspirated and replaced with fresh serum free DMEM and the cells cultured for a further 72 hours. After 72 hours the culture media was collected for assessment of secreted, soluble collagen types I, III and VI as well as fibronectin protein and the cells assessed for viability/growth using an alamar blue fluorescent dye assay. This assay measures the reduction of oxidized, blue nonfluorescent Alamar Blue reagent to a pink fluorescent dye in the cell medium, such that the higher the amount of reduction, the greater the cell number and/or activity (O'Brien Eur J Biochem 267 2000). Briefly, cells were bathed in a 10% Alamar Blue/phosphate-buffered saline (PBS) solution for 30-60 minutes and fluorescence measured at wavelengths of 485 nm excitation and 595 nm emission using a Wallac Victor Multilabel HTS counter. Relative fluorescent units (RFU) for each sample were normalized to control wells (DMEM only treated cells) and data expressed as mean±standard error of the mean (sem) for triplicate wells. Experiments were repeated at least three times with the combined data from all experiments shown.
The amount of soluble collagen types I, III, and VI in HFF conditioned media was measured by a direct coat ELISA method using standard curves constructed from purified human collagen I, III or VI (extracted from human placenta; col I, BD Biosciences; col III and VI, Rocklands Immunochemicals) and fibronectin (extracted from human plasma, Chemicon). Samples and standards (20 μl/well) were added to a 384 well spectraplate (Packard BioScience) and left at room temperature (RT) overnight. […] After a final wash (6×PBS-T), enhancement solution was added for at least 10 minutes and fluorescence measured at excitation 340 nm and emission 615 nm using a Wallac Victor Multilabel HTS counter. The respective ECM concentration of each sample was determined from the standard curve (μg/ml) and normalized to control wells (DMEM only treated cells) with the mean±sem for triplicate wells calculated. […]

In data set [2] the test system is HFF cells. The data set is described as follows: Soluble collagen I secreted by fibroblast-populated INTEGRA (ELISA). In kind it is cell-based, human. The conditions noted are these: SBP 12.5 μg/ml for 24 hours, ELISA after 72 hours. The method, then:
Additional experiments were performed to determine if fibroblast cells populating a three-dimensional framework or scaffold could be stimulated to secrete soluble collagen I into the media bathing the three-dimensional framework or scaffold. For these experiments, HFF cells were seeded onto the INTEGRA® and allowed to populate the scaffold for two weeks under normal culture conditions (10% FCS supplementation). The populated scaffold was then stimulated with a protein having peroxidase activity by immersing it in basal media (DMEM) containing SBP (12.5 μg/ml) for 24 hours. The INTEGRA® was then placed into fresh DMEM and the collagen-I content of the media measured by ELISA after 72 hours.

A short description of data set [3]: Elution of peroxidase activity from INTEGRA (Sigmafast OPD detection). The protocol:
(§1) These experiments were performed by pre-incubating 1 cm×1 cm pieces of INTEGRA® with SBP (25 μg/ml) as described in Example 3 for either 30 minutes or 16 hours, control pieces were pre-incubated in DMEM only. After this time, the pieces of INTEGRA® were washed in fresh media to remove excess SBP solution, and placed into the wells of a 12-well culture plate pre-seeded with HFF cells (2×10^5cells/well) that were grown to confluency over three days. The media from these wells was collected after 24 and 48 hours with peroxidase activity measured (to determine the rate of elution of the proteins with peroxidase activity from the Integra) and the collagen content measured by ELISA (to ensure the eluted proteins with peroxidase activity retained the capacity to stimulate collagen production by the HFF cells). The peroxidase activity was assessed using the Sigmafast™ O-phenylenediamine dihydrochloride (OPD) detection method as per the manufacturers instructions. Briefly, 5 μl of sample was combined with 100 μl of reagent and relative peroxidase activity determined after 5-10 minutes incubation by measuring absorbance at 450 nm using a Wallac Victor Multilabel HTS counter.

For data set [4], the system named is HFF cells. The data set is described as follows: Collagen I production stimulated by SBP eluted from INTEGRA (ELISA). As to conditions: versus control INTEGRA pieces. In kind it is cell-based, human. The protocol:
as §1

For the substance Arthromyces ramosus peroxidase [ARP], the “increase in collagen I levels” value in data set [1] (3.1-25 μg/ml, no dexamethasone) is reported as 4.5-7 fold. In addition, the “collagen accumulation in cells treated with both dexamethasone and ARP” value in data set [1] (dexamethasone 20 μM) was “significant levels of collagen accumulation were still evident”.
For soy bean peroxidase [SBP], the “increase in collagen I secreted into the media bathing the scaffold” value in data set [2] is 2-3 fold. For the same substance, in data set [3], the “peroxidase activity eluted, pre-incubated 16 hours compared to 30 minutes” value is recorded as “approximately one third more”. The “peroxidase activity in the medium collected after 24 and 48 hours” value in data set [3] (24 versus 48 hours elution) is “identical”. For the same substance, in data set [4], the “ECM production (collagen I ELISA) by HFF cells exposed to eluted protein” value is recorded as “able to stimulate ECM production”.
